{
  "source": "ChEMBL document CHEMBL2203073",
  "about": "“Synthesis and biological evaluation of 4,4-dimethyl lithocholic acid derivatives as novel inhibitors of protein tyrosine phosphatase 1B” (Bioorg Med Chem Lett, 2012)",
  "key": {"[1]": {"molecular_target": "T1, Tyrosine-protein phosphatase non-receptor type 1 (Homo sapiens, UniProt P18031)", "T1 sequence (P18031 whole entry)": "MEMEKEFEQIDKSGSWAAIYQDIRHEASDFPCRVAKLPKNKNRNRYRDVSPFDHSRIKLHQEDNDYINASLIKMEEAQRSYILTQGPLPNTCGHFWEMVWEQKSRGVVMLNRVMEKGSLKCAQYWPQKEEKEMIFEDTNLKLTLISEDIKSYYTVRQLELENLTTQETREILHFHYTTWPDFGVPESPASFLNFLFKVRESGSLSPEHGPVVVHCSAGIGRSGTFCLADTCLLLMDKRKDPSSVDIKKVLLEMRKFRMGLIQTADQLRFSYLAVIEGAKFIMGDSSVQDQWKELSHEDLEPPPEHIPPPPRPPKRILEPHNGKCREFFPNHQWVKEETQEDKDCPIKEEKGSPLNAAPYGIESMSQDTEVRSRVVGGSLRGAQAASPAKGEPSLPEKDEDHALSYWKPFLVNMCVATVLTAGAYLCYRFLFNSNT", "experiment": "Inhibition of PTP1B by para-nitrophenyl phosphate release assay"}, "[2]": {"experiment": "Selectivity index, ratio of IC50 for TCPTP to PTP1B"}, "[3]": {"molecular_target": "T2, Tyrosine-protein phosphatase non-receptor type 2 (Homo sapiens, UniProt P17706)", "T2 sequence (P17706 whole entry)": "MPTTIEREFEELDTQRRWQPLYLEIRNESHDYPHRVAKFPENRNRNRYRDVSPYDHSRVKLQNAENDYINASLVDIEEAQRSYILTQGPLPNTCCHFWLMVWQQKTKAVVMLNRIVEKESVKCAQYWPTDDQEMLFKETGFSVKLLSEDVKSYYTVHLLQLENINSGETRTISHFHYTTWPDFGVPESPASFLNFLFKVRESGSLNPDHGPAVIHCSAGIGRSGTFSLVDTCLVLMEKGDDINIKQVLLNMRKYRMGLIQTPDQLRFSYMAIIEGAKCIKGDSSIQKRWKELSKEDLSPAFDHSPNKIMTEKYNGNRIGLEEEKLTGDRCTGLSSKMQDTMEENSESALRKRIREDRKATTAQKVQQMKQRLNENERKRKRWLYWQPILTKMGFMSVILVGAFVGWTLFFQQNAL", "experiment": "Inhibition of TCPTP by para-nitrophenyl phosphate release assay"}, "[4]": {"molecular_target": "T3, Tyrosine-protein phosphatase non-receptor type 11 (Homo sapiens) (UniProt Q06124)", "T3 sequence (whole entry)": "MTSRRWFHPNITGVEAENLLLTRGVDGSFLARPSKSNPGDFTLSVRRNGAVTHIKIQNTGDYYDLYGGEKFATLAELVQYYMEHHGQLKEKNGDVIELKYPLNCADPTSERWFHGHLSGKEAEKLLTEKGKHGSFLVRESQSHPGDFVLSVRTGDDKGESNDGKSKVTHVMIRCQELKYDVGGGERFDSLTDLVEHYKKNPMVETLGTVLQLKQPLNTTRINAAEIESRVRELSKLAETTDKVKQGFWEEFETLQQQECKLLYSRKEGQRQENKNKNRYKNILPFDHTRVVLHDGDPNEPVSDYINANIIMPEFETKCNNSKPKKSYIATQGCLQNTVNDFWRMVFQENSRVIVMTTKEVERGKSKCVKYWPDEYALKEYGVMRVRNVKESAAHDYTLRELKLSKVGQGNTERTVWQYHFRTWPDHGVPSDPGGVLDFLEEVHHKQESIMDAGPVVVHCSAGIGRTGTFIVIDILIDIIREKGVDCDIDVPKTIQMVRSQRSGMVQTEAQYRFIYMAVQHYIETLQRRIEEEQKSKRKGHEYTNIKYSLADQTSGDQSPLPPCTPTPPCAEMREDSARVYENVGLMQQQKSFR", "experiment": "Inhibition of SHP2 at 40 uM"}, "[5]": {"molecular_target": "Receptor-type tyrosine-protein phosphatase F (Homo sapiens) (UniProt P10586)", "sequence (P10586 whole entry)": "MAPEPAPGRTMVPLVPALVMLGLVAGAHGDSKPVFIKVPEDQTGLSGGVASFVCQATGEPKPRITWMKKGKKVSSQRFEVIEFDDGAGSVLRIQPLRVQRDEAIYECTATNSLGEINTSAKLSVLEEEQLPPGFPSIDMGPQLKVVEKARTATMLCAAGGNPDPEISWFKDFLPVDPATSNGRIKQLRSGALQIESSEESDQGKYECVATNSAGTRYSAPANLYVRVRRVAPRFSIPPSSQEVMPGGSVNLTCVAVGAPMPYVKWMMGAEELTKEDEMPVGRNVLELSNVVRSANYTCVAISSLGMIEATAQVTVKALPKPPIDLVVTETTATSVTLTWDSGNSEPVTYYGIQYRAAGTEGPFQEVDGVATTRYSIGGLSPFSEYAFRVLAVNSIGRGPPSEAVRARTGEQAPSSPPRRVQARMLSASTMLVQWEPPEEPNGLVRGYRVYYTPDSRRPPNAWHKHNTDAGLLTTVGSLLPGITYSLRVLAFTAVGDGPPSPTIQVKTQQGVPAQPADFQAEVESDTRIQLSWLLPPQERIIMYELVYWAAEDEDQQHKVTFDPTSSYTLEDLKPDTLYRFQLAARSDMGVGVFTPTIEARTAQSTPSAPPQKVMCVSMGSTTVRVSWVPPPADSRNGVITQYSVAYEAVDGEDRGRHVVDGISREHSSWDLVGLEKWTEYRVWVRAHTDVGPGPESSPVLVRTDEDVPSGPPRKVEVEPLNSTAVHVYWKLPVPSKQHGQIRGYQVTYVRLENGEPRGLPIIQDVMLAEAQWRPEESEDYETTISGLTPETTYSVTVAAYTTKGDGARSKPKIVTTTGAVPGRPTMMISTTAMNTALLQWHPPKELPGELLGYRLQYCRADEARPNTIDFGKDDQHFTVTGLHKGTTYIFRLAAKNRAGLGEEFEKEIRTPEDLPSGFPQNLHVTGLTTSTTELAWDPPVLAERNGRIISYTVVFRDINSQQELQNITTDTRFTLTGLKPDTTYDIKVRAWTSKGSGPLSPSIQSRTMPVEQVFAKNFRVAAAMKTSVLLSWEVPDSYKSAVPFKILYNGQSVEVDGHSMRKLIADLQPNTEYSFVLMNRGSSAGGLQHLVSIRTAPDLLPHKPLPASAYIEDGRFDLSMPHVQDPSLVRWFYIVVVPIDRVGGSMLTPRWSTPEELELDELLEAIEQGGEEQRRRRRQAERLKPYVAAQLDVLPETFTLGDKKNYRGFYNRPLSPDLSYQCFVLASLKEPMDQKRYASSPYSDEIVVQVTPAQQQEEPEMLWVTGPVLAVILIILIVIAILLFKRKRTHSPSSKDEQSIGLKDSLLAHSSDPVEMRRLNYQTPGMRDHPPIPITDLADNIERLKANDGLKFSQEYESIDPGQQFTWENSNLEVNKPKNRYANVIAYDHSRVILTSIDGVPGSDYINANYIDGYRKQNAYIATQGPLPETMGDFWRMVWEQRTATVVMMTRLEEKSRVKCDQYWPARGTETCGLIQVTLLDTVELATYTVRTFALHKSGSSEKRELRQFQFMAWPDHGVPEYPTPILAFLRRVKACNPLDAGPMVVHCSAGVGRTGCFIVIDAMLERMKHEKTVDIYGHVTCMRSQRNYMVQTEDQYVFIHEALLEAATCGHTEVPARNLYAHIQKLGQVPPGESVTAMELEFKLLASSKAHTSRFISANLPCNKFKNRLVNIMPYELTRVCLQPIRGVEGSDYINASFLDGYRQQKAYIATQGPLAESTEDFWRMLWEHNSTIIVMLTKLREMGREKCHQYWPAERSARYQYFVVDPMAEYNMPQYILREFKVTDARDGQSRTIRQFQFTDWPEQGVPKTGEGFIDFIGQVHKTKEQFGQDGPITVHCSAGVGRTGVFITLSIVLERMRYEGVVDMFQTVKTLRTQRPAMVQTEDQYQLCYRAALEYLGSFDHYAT", "experiment": "Inhibition of LAR at 40 uM"}, "[6]": {"molecular_target": "T1, Tyrosine-protein phosphatase non-receptor type 1", "experiment": "Competitive inhibition of PTP1B by para-nitrophenyl phosphate release assay"}, "[7]": {"molecular_target": "Tyrosine-protein phosphatase non-receptor type 6 (Homo sapiens) (UniProt P29350)", "sequence (P29350 whole entry)": "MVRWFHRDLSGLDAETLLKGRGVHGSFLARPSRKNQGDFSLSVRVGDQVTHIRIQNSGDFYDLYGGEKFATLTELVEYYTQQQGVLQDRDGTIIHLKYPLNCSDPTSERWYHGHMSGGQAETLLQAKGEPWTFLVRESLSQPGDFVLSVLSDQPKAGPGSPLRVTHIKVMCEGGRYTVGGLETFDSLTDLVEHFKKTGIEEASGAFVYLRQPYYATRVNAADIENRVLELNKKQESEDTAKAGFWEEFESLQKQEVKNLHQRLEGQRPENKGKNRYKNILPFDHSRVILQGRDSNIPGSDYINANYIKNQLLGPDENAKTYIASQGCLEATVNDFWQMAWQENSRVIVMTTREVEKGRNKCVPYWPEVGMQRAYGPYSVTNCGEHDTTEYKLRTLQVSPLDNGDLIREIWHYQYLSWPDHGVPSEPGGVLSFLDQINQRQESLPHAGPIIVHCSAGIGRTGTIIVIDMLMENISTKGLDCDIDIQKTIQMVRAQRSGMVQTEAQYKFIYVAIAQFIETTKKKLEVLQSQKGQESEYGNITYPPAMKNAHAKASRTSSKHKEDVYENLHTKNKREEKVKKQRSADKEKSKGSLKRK", "experiment": "Inhibition of SHP1 at 40 uM"}},
  "data": [
    {"molecule": "C[C@H](CCC(=O)O)[C@H]1CC[C@H]2[C@@H]3CC=C4C(C)(C)c5oncc5C[C@]4(C)[C@H]3CC[C@]12C", "values": [
      {"measurement": "IC50", "setting": "[1]", "value": 9.13, "unit": "µM"},
      {"measurement": "Ratio IC50", "setting": "[2]", "value": 5.1},
      {"measurement": "IC50", "setting": "[3]", "value": 46.6, "unit": "µM"}
    ]},
    {"molecule": "COC(=O)CC[C@@H](C)[C@H]1CC[C@H]2[C@@H]3CC=C4C(C)(C)c5nc(N)sc5C[C@]4(C)[C@H]3CC[C@]12C", "values": [
      {"measurement": "IC50", "setting": "[1]", "value": 9.04, "unit": "µM"},
      {"measurement": "Ratio IC50", "setting": "[2]", "value": "> 4.4"},
      {"measurement": "IC50", "setting": "[3]", "value": "> 40", "unit": "µM"}
    ]},
    {"molecule": "C[C@H](CCC(=O)O)[C@H]1CC[C@H]2[C@@H]3CC=C4C(C)(C)c5nc(N)ncc5C[C@]4(C)[C@H]3CC[C@]12C", "values": [
      {"measurement": "IC50", "setting": "[1]", "value": 3.61, "unit": "µM"},
      {"measurement": "Ratio IC50", "setting": "[2]", "value": 5},
      {"measurement": "IC50", "setting": "[3]", "value": 17.1, "unit": "µM"}
    ]},
    {"molecule": "C[C@H](CCC(=O)O)[C@H]1CC[C@H]2[C@@H]3CC=C4C(C)(C)c5nc(N)sc5C[C@]4(C)[C@H]3CC[C@]12C", "values": [
      {"measurement": "IC50", "setting": "[1]", "value": 5.57, "unit": "µM"},
      {"measurement": "Ratio IC50", "setting": "[2]", "value": 2},
      {"measurement": "IC50", "setting": "[3]", "value": 11, "unit": "µM"}
    ]},
    {"molecule": "O=C(O)C(=O)c1ccc(OCc2ccc(COc3ccc(C(=O)C(=O)O)cc3)cc2)cc1", "values": [
      {"measurement": "Ratio IC50", "setting": "[2]", "value": 1.6}
    ]},
    {"molecule": "CCOC(=O)CC[C@@H](C)[C@H]1CC[C@H]2[C@@H]3CC=C4C(C)(C)c5[nH]ncc5C[C@]4(C)[C@H]3CC[C@]12C", "values": [
      {"measurement": "IC50", "setting": "[1]", "value": 19.2, "unit": "µM"},
      {"measurement": "Ratio IC50", "setting": "[2]", "value": "> 2.1"},
      {"measurement": "IC50", "setting": "[3]", "value": "> 40", "unit": "µM"}
    ]},
    {"molecule": "C[C@H](CCC(=O)O)[C@H]1CC[C@H]2[C@@H]3CC=C4C(C)(C)c5[nH]nc(C(=O)O)c5C[C@]4(C)[C@H]3CC[C@]12C", "values": [
      {"measurement": "IC50", "setting": "[1]", "value": 9.27, "unit": "µM"},
      {"measurement": "Ratio IC50", "setting": "[2]", "value": 0.9},
      {"measurement": "IC50", "setting": "[3]", "value": 9, "unit": "µM"}
    ]},
    {"molecule": "C[C@H](CCC(=O)O)[C@H]1CC[C@H]2[C@@H]3CC=C4C(C)(C)c5ncncc5C[C@]4(C)[C@H]3CC[C@]12C", "values": [
      {"measurement": "IC50", "setting": "[1]", "value": 11.6, "unit": "µM"},
      {"measurement": "Ratio IC50", "setting": "[2]", "value": 0.9},
      {"measurement": "IC50", "setting": "[3]", "value": 10.8, "unit": "µM"}
    ]},
    {"molecule": "C[C@H](CCC(=O)O)[C@H]1CC[C@H]2[C@@H]3CC[C@@H]4C[C@H](O)CC[C@]4(C)[C@H]3CC[C@]12C", "note": "[LITHOCHOLIC ACID]", "values": [
      {"measurement": "IC50", "setting": "[1]", "value": 12.7, "unit": "µM"},
      {"measurement": "Ratio IC50", "setting": "[2]", "value": 1.6},
      {"measurement": "IC50", "setting": "[3]", "value": 20.4, "unit": "µM"}
    ]},
    {"molecule": "C[C@H](CCC(=O)O)[C@H]1CC[C@H]2[C@@H]3CC=C4C(C)(C)c5c(cnn5-c5ccccc5)C[C@]4(C)[C@H]3CC[C@]12C", "values": [
      {"measurement": "IC50", "setting": "[1]", "value": 1.62, "unit": "µM"},
      {"measurement": "inhibition", "setting": "[4]", "value": 9.36, "unit": "%"},
      {"measurement": "Ratio IC50", "setting": "[2]", "value": 14.1},
      {"measurement": "inhibition", "setting": "[5]", "value": 26.9, "unit": "%"},
      {"measurement": "Ki", "setting": "[6]", "value": 0.84, "unit": "µM"},
      {"measurement": "inhibition", "setting": "[7]", "value": 0.97, "unit": "%"},
      {"measurement": "IC50", "setting": "[3]", "value": 22.8, "unit": "µM"}
    ]},
    {"molecule": "COC(=O)CC[C@@H](C)[C@H]1CC[C@H]2[C@@H]3CC=C4C(C)(C)C(=O)CC[C@]4(C)[C@H]3CC[C@]12C", "values": [
      {"measurement": "IC50", "setting": "[1]", "value": 13.2, "unit": "µM"},
      {"measurement": "Ratio IC50", "setting": "[2]", "value": "> 3.8"},
      {"measurement": "IC50", "setting": "[3]", "value": "> 50", "unit": "µM"}
    ]},
    {"molecule": "C[C@H](CCC(=O)O)[C@H]1CC[C@H]2[C@@H]3CC=C4C(C)(C)c5nnsc5C[C@]4(C)[C@H]3CC[C@]12C", "values": [
      {"measurement": "IC50", "setting": "[1]", "value": 39.4, "unit": "µM"},
      {"measurement": "Ratio IC50", "setting": "[2]", "value": 0.9},
      {"measurement": "IC50", "setting": "[3]", "value": 36.6, "unit": "µM"}
    ]},
    {"molecule": "Cc1ncc2c(n1)C(C)(C)C1=CC[C@H]3[C@@H]4CC[C@H]([C@H](C)CCC(=O)O)[C@@]4(C)CC[C@@H]3[C@@]1(C)C2", "values": [
      {"measurement": "IC50", "setting": "[1]", "value": 9.11, "unit": "µM"},
      {"measurement": "Ratio IC50", "setting": "[2]", "value": 1.2},
      {"measurement": "IC50", "setting": "[3]", "value": 11.5, "unit": "µM"}
    ]},
    {"molecule": "C[C@H](CCC(=O)O)[C@H]1CC[C@H]2[C@@H]3CC=C4C(C)(C)c5nccnc5C[C@]4(C)[C@H]3CC[C@]12C", "values": [
      {"measurement": "IC50", "setting": "[1]", "value": 8.62, "unit": "µM"},
      {"measurement": "Ratio IC50", "setting": "[2]", "value": 2.8},
      {"measurement": "IC50", "setting": "[3]", "value": 23.8, "unit": "µM"}
    ]},
    {"molecule": "C[C@H](CCC(=O)O)[C@H]1CC[C@H]2[C@@H]3CC=C4C(C)(C)C(=O)CC[C@]4(C)[C@H]3CC[C@]12C", "values": [
      {"measurement": "IC50", "setting": "[1]", "value": 13.2, "unit": "µM"},
      {"measurement": "IC50", "setting": "[3]", "value": "> 50", "unit": "µM"}
    ]},
    {"molecule": "COC(=O)CC[C@@H](C)[C@H]1CC[C@H]2[C@@H]3CC=C4C(C)(C)c5nccnc5C[C@]4(C)[C@H]3CC[C@]12C", "values": [
      {"measurement": "IC50", "setting": "[1]", "value": 28.2, "unit": "µM"},
      {"measurement": "Ratio IC50", "setting": "[2]", "value": "> 1.4"},
      {"measurement": "IC50", "setting": "[3]", "value": "> 40", "unit": "µM"}
    ]},
    {"molecule": "C[C@H](CCC(=O)O)[C@H]1CC[C@H]2[C@@H]3CC=C4C(C)(C)c5[nH]ncc5C[C@]4(C)[C@H]3CC[C@]12C", "values": [
      {"measurement": "IC50", "setting": "[1]", "value": 4.11, "unit": "µM"},
      {"measurement": "Ratio IC50", "setting": "[2]", "value": 4.7},
      {"measurement": "IC50", "setting": "[3]", "value": 19.2, "unit": "µM"}
    ]},
    {"molecule": "CCOC(=O)CC[C@@H](C)[C@H]1CC[C@H]2[C@@H]3CC=C4C(C)(C)c5nc(N)ncc5C[C@]4(C)[C@H]3CC[C@]12C", "values": [
      {"measurement": "IC50", "setting": "[1]", "value": "> 40", "unit": "µM"},
      {"measurement": "IC50", "setting": "[3]", "value": "> 40", "unit": "µM"}
    ]}
  ]
}
